Data published in PubChem BioAssay AID2060886 (Molecular Pharmacology Branch, DTP, NCI, 2025).
“And” between values parts separate entries of the source, which are not always exact repeats. Equal values may be shown once.

Test system: 653999-131-R-J2-PDC complex spheroids, growth inhibition
Test: Anticancer human tumor 653999-131-R-J2-PDC patient-derived lung adenocarcinoma cell line growth inhibition [RAS]
Details: for viability, T/C: stronger effect = lower value
How it was run: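 Tumour cells grown as complex spheroids with HUVEC endothelial cells and mesenchymal stem cells, treated with RAS pathway inhibitor combinations. Each agent spans half-log steps from near clinical Cmax, or 10 microM where Cmax is unknown.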

[1] = curve of first compound, second compound 0.0316 µM
[2] = curve of first compound, second compound 0.1 µM
[3] = curve of first compound, second compound 0.316 µM
[4] = curve of first compound, second compound 1 µM
[5] = curve of first compound, second compound 3.16 µM
[6] = curve of first compound, second compound 10 µM
[7] = second compound 0.0316 µM, first compound 0.00316 µM
[8] = second compound 0.0316 µM, first compound 0.01 µM
[9] = second compound 0.0316 µM, first compound 0.0316 µM
[10] = second compound 0.0316 µM, first compound 0.1 µM
[11] = second compound 0.1 µM, first compound 0.00316 µM
[12] = second compound 0.1 µM, first compound 0.01 µM
[13] = second compound 0.1 µM, first compound 0.0316 µM
[14] = second compound 0.1 µM, first compound 0.1 µM
[15] = second compound 0.316 µM, first compound 0.00316 µM
[16] = second compound 0.316 µM, first compound 0.01 µM
[17] = second compound 0.316 µM, first compound 0.0316 µM
[18] = second compound 0.316 µM, first compound 0.1 µM
[19] = second compound 1 µM, first compound 0.00316 µM
[20] = second compound 1 µM, first compound 0.01 µM
[21] = second compound 1 µM, first compound 0.0316 µM
[22] = second compound 1 µM, first compound 0.1 µM
[23] = second compound 3.16 µM, first compound 0.00316 µM
[24] = second compound 3.16 µM, first compound 0.01 µM
[25] = second compound 3.16 µM, first compound 0.0316 µM
[26] = second compound 3.16 µM, first compound 0.1 µM
[27] = second compound 10 µM, first compound 0.00316 µM
[28] = second compound 10 µM, first compound 0.01 µM
[29] = second compound 10 µM, first compound 0.0316 µM
[30] = second compound 10 µM, first compound 0.1 µM
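Also: spheroids exposed to the agents for seven days before the readout.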

With `CC(C)n1nc(-c2ccc3oc(N)nc3c2)c2c(N)ncnc21` + C#Cc1c(F)ccc2cc(O)cc(-c3ncc4c(N5CC6CCC(C5)N6)nc(OCC56CCCN5CC(F)C6)nc4c3F)c12 the IC50 [1] was 0.0136 µM, the IC50 [2] was 0.00856 µM and the IC50 [3] was 0.00252 µM. For the same compound, the IC50 [4] was under 0.000316 µM, the IC50 [5] was under 0.000316 µM and the IC50 [6] was under 0.000316 µM. It also gave a viability, T/C (second compound 0.0316 µM, first compound 0.000316 µM) of 97.1%, a viability, T/C (second compound 0.0316 µM, first compound 0.001 µM) of 97.5% and a viability, T/C [7] of 74.1%. The viability, T/C [8] was 57.8%, the viability, T/C [9] was 34.1% and the viability, T/C [10] was 24.7%. For the same compound, the viability, T/C (second compound 0.1 µM, first compound 0.000316 µM) was 94.5%, the viability, T/C (second compound 0.1 µM, first compound 0.001 µM) was 99.5% and the viability, T/C [11] was 68.3%. The viability, T/C [12] was 49%, the viability, T/C [13] was 28.1% and the viability, T/C [14] was 21.3%. For the same compound, the viability, T/C (second compound 0.316 µM, first compound 0.000316 µM) was 78%, the viability, T/C (second compound 0.316 µM, first compound 0.001 µM) was 48.8% and the viability, T/C [15] was 57.9%. It also gave a viability, T/C [16] of 35.3%, a viability, T/C [17] of 20.2% and a viability, T/C [18] of 16.2%. The viability, T/C (second compound 1 µM, first compound 0.000316 µM) was 42.1%, the viability, T/C (second compound 1 µM, first compound 0.001 µM) was 38.6% and the viability, T/C [19] was 32.3%. It also gave a viability, T/C [20] of 27.1%, a viability, T/C [21] of 16.1% and a viability, T/C [22] of 10.1%. For the same compound, the viability, T/C (second compound 3.16 µM, first compound 0.000316 µM) was 42%, the viability, T/C (second compound 3.16 µM, first compound 0.001 µM) was 43.8% and the viability, T/C [23] was 24.3%. For the same compound, the viability, T/C [24] was 20.1%, the viability, T/C [25] was 10.5% and the viability, T/C [26] was 8.31%. The viability, T/C (second compound 10 µM, first compound 0.000316 µM) was 22.6%, the viability, T/C (second compound 10 µM, first compound 0.001 µM) was 27.4% and the viability, T/C [27] was 17%. It also gave a viability, T/C [28] of 11.6%, a viability, T/C [29] of 7.55% and a viability, T/C [30] of 5.84%.
`CCN1CCN(Cc2ccc(Nc3ncc(F)c(-c4cc(F)c5nc(C)n(C(C)C)c5c4)n3)nc2)CC1` was tested, and the viability, T/C (compound 0.00316 µM) was 87.8% [middle of 4 runs], the viability, T/C (compound 0.01 µM) was 96.6% [middle of 4 runs] and the viability, T/C (compound 0.0316 µM) was 73.8% [middle of 4 runs]. The viability, T/C (compound 0.316 µM) was 80.7% [middle of 4 runs], the viability, T/C (compound 1 µM) was 83.8% [middle of 4 runs] and the IC50 (curve of compound) was over 1 µM.
Compound `C=CC(=O)Nc1cc(Nc2nccc(-c3cn(C)c4ccccc34)n2)c(OC)cc1N(C)CCN(C)C` + C#Cc1c(F)ccc2cc(O)cc(-c3ncc4c(N5CC6CCC(C5)N6)nc(OCC56CCCN5CC(F)C6)nc4c3F)c12 has an IC50 [1] of over 1 µM, an IC50 [2] of 0.613 µM and an IC50 [3] of 0.0617 µM. For the same compound, the IC50 [4] was 0.0177 µM, the IC50 [5] was under 0.00316 µM and the IC50 [6] was under 0.00316 µM. It also gave a viability, T/C [7] of 96.1%, a viability, T/C [8] of 80.7% and a viability, T/C [9] of 82.9%. It also gave a viability, T/C [10] of 68.3%, a viability, T/C (second compound 0.0316 µM, first compound 0.316 µM) of 55.5% and a viability, T/C (second compound 0.0316 µM, first compound 1 µM) of 63.3%. It also gave a viability, T/C [11] of 89.4%, a viability, T/C [12] of 90.8% and a viability, T/C [13] of 57.7%. The viability, T/C [14] was 69.9%, the viability, T/C (second compound 0.1 µM, first compound 0.316 µM) was 57.2% and the viability, T/C (second compound 0.1 µM, first compound 1 µM) was 44.3%. For the same compound, the viability, T/C [15] was 77%, the viability, T/C [16] was 95% and the viability, T/C [17] was 65.1%. For the same compound, the viability, T/C [18] was 37.1%, the viability, T/C (second compound 0.316 µM, first compound 0.316 µM) was 40.9% and the viability, T/C (second compound 0.316 µM, first compound 1 µM) was 39.2%. It also gave a viability, T/C [19] of 60.9%, a viability, T/C [20] of 53.7% and a viability, T/C [21] of 43.2%. The viability, T/C [22] was 42.8%, the viability, T/C (second compound 1 µM, first compound 0.316 µM) was 36.1% and the viability, T/C (second compound 1 µM, first compound 1 µM) was 28.1%. For the same compound, the viability, T/C [23] was 45.6%, the viability, T/C [24] was 35.2% and the viability, T/C [25] was 38.3%. For the same compound, the viability, T/C [26] was 25.9%, the viability, T/C (second compound 3.16 µM, first compound 0.316 µM) was 22.8% and the viability, T/C (second compound 3.16 µM, first compound 1 µM) was 19.6%. The viability, T/C [27] was 35.2%, the viability, T/C [28] was 27.7% and the viability, T/C [29] was 26.4%. For the same compound, the viability, T/C [30] was 15.5%, the viability, T/C (second compound 10 µM, first compound 0.316 µM) was 15.2% and the viability, T/C (second compound 10 µM, first compound 1 µM) was 10.5%.
`CC(C)NCC(C(=O)N1CCN(c2ncnc3c2C(C)CC3O)CC1)c1ccc(Cl)cc1` (stereo not given) was tested, and the viability, T/C (compound 0.0316 µM) was 96.7% [middle of 4 runs], the viability, T/C (compound 0.1 µM) was 96.7% [middle of 4 runs] and the viability, T/C (compound 0.316 µM) was 77.1% [middle of 4 runs]. The viability, T/C (compound 1 µM) was 54.2% [middle of 4 runs], the viability, T/C (compound 3.16 µM) was 46.6% [middle of 4 runs] and the viability, T/C (compound 10 µM) was 34.9% [middle of 4 runs].
For `CC(C)n1nc(-c2ccc3oc(N)nc3c2)c2c(N)ncnc21`, the viability, T/C (compound 0.000316 µM) was 87.2% and 81.4% and 79.2%, the viability, T/C (compound 0.001 µM) was 89.2% and 93.6% and 71.3% and the viability, T/C (compound 0.00316 µM) was 87.7% and 76.8% and 77.8%. For the same compound, the viability, T/C (compound 0.01 µM) was 61.8% and 63.5% and 57.9%, the viability, T/C (compound 0.0316 µM) was 43.1% and 40.6% and 35.8% and the viability, T/C (compound 0.1 µM) was 34.1% and 25.4% and 27.2%. For the same compound, the IC50 (curve of compound) was 0.0195 µM and 0.0194 µM and 0.0154 µM.
`CC(=O)OC12COC1CC(O)C1(C)C(=O)C(O)C3=C(C)C(OC(=O)C(O)C(NC(=O)OC(C)(C)C)c4ccccc4)CC(O)(C(OC(=O)c4ccccc4)C21)C3(C)C` (stereo not given) + CCn1c(-c2cc(N3CCN(C)CC3)cnc2C(C)OC)c2c3cc(ccc31)-c1csc(n1)CC(NC(=O)C1CC1C)C(=O)N1CCCC(N1)C(=O)OCC(C)(C)C2 showed an IC50 (curve of first compound, second compound 0.000949 µM) of under 0.0316 µM, an IC50 (curve of first compound, second compound 0.003 µM) of under 0.0316 µM and an IC50 (curve of first compound, second compound 0.00949 µM) of under 0.0316 µM. It also gave an IC50 (curve of first compound, second compound 0.03 µM) of under 0.0316 µM, an IC50 (curve of first compound, second compound 0.0949 µM) of under 0.0316 µM and an IC50 (curve of first compound, second compound 0.3 µM) of under 0.0316 µM. The viability, T/C (second compound 0.000949 µM, first compound 0.0316 µM) was 38.1%, the viability, T/C (second compound 0.000949 µM, first compound 0.1 µM) was 39.4% and the viability, T/C (second compound 0.000949 µM, first compound 0.316 µM) was 42.8%. It also gave a viability, T/C (second compound 0.000949 µM, first compound 1 µM) of 43.5%, a viability, T/C (second compound 0.000949 µM, first compound 3.16 µM) of 48.8% and a viability, T/C (second compound 0.000949 µM, first compound 10 µM) of 51.6%. The viability, T/C (second compound 0.003 µM, first compound 0.0316 µM) was 29.9%, the viability, T/C (second compound 0.003 µM, first compound 0.1 µM) was 27% and the viability, T/C (second compound 0.003 µM, first compound 0.316 µM) was 27.6%. It also gave a viability, T/C (second compound 0.003 µM, first compound 1 µM) of 35.4%, a viability, T/C (second compound 0.003 µM, first compound 3.16 µM) of 30.9% and a viability, T/C (second compound 0.003 µM, first compound 10 µM) of 31.7%. It also gave a viability, T/C (second compound 0.00949 µM, first compound 0.0316 µM) of 14.9%, a viability, T/C (second compound 0.00949 µM, first compound 0.1 µM) of 21% and a viability, T/C (second compound 0.00949 µM, first compound 0.316 µM) of 20.7%. It also gave a viability, T/C (second compound 0.00949 µM, first compound 1 µM) of 21.9%, a viability, T/C (second compound 0.00949 µM, first compound 3.16 µM) of 21.7% and a viability, T/C (second compound 0.00949 µM, first compound 10 µM) of 19.1%. It also gave a viability, T/C (second compound 0.03 µM, first compound 0.0316 µM) of 13.3%, a viability, T/C (second compound 0.03 µM, first compound 0.1 µM) of 13.2% and a viability, T/C (second compound 0.03 µM, first compound 0.316 µM) of 12.8%. For the same compound, the viability, T/C (second compound 0.03 µM, first compound 1 µM) was 13.2%, the viability, T/C (second compound 0.03 µM, first compound 3.16 µM) was 14% and the viability, T/C (second compound 0.03 µM, first compound 10 µM) was 13.1%. For the same compound, the viability, T/C (second compound 0.0949 µM, first compound 0.0316 µM) was 11.5%, the viability, T/C (second compound 0.0949 µM, first compound 0.1 µM) was 12.1% and the viability, T/C (second compound 0.0949 µM, first compound 0.316 µM) was 13.8%. It also gave a viability, T/C (second compound 0.0949 µM, first compound 1 µM) of 10.6%, a viability, T/C (second compound 0.0949 µM, first compound 3.16 µM) of 12.6% and a viability, T/C (second compound 0.0949 µM, first compound 10 µM) of 12.2%. The viability, T/C (second compound 0.3 µM, first compound 0.0316 µM) was 8.97%, the viability, T/C (second compound 0.3 µM, first compound 0.1 µM) was 10.1% and the viability, T/C (second compound 0.3 µM, first compound 0.316 µM) was 12%. It also gave a viability, T/C (second compound 0.3 µM, first compound 1 µM) of 13.4%, a viability, T/C (second compound 0.3 µM, first compound 3.16 µM) of 12.2% and a viability, T/C (second compound 0.3 µM, first compound 10 µM) of 12.3%.
